This assay deals with human PBMC. The assay is described as follows: Cytokine profile of matrix-embedded, perfused PBMC cultures in device 1 (multiplex bead array). The format is cell-based. The method, then:
Cryopreserved human PBMC, isolated from whole blood by ficoll density gradient centrifugation, were revitalised using standard protocols. The cell concentration was adjusted to 3 E8 viable cells per mL in X-Vivo 15 cell culture media (Lonza, Basel, Switzerland) supplemented with 5 mg/mL agarose type VII (made from 50 mg/mL 37° C. liquid solution, Sigma-Aldrich, St. Louis, Mo.), 2.5 μg/mL fibronectin (human, Sigma-Aldrich, St. Louis, Mo.) and 1× penicillin/streptomycin solution (100×, Invitrogen, Carlsbad, Calif.).
The device was made of a 1 mm PC plate housing the culture compartment, feeding and draining canals (see FIGS. 1 and 1A). The plate was covered with a 1 mm PC plate on top were the luer connectors were attached and a gas permeable membrane (Biofoil25, Greiner bio-one, Kremsmünster, Germany) at the bottom of the plate for optimal gas supply of the culture. The culture compartment of this special embodiment of device 1 has a volume of 160 μL. The device was incubated in a humidified incubator (37° C./5% carbon dioxide).
Three culture compartments of the device, further illustrated in FIG. 1A, were filled with cell suspension in liquid agarose media avoiding air bubbles (4,8 E7 viable PBMC/compartment). The whole culture device was cooled down to 4° C. for 5 min in order to let the matrix gel. Subsequently the surrounding fluidic system was prefilled with X-Vivo 15 cell culture media and was applied to the luer connectors of the culture device. A flow rate of 13.1 μL/h was set up using a peristaltic media pump.
Samples were taken every day and immediately frozen down to −20° C. for subsequent cytokine analyses using multiplex bead array technology (Luminex, Austin, Tex.).
After the second sample was taken 24 hours after innoculation, 100 μL OKT-3 antibody (100 ng/mL solution in X-Vivo 15, Ortho Biotech, Bridgewater, N.J.) were administered via an injection site in the fluidic system. 5 days after inoculation the last sample was taken and viability of the cultures was checked with acridine orange (1 μg/mL, Sigma, St. Louis, […].) and ethidium bromide (4 μg/mL, Sigma, St. Louis, […].).
The experiment was conducted as described in example 1. PBMCs were derived from a differed donor and cells were subsequently cultured in RPMI 1640 (Invitrogen, Carlsbad, Calif.) supplemented with 10% FCS (Biochrom, Berlin, Germany) and 1× penicillin/streptomycin solution (100×, Invitrogen, Carlsbad, Calif.). As described previously, the culture compartment of culture device 1 (see FIGS. 1 and 1A) was filled with liquid agarose-media (RPMI 1640 10% FCS cell culture media supplemented with 5 mg/mL agarose type VII (from 50 mg/mL 37° C. liquid solution, Sigma-Aldrich, St. Louis, Mo.), 2.5 μg/mL fibronectin (human, Sigma-Aldrich, St. Louis, Mo.) and 1× penicillin/streptomycin solution (100×, Invitrogen, Carlsbad, Calif.) and cells (4,8 E7 PBMC/compartment). After pre-incubation for 24 hours with a constant perfusion rate of 13.1 μL culture media, 100 μL of a 100 ng/mL OKT-3 solution was administered. Samples were taken every 24 hours and frozen down to −20° C. before the cytokine levels were determined.

[1] abbreviates: Example 1, X-Vivo 15 medium, 100 μL of 100 ng/mL OKT-3.
Where [2] appears, read: Example 2, different donor, RPMI 1640 10% FCS, 100 μL of 100 ng/mL OKT-3.

One substance from patent US8911995B2, “Culture system and method for immunogenicity and immunofunction testing in vitro” (ProBioGen AG, priority 2007, dated 2014) can be followed below.

Consider Muromonab-CD3 [OKT-3], for which, under setting [1], the IFN-gamma release entry is on record as “released”, the IL-5 level result was “raises initially” and the TNF-alpha release entry was “released”. For the same substance, under “Example 1, X-Vivo 15 medium, 24 hours after administration of 100 μL of 100 ng/mL OKT-3”, the IL-2 release entry is reported as “massive IL-2 burst”. Further, the “IL-2 level after the initial burst” value (Example 1, X-Vivo 15 medium, after 72 hours) was “declined”. Also, under setting [2], the IFN-gamma level entry is on record as “only raise slightly”, the IL-2 release entry was “massive IL-2 release”, the IL-5 level result is recorded as “raises initially” and the TNF-alpha level result is recorded as “only raise slightly”.
